Reference: US20240317724A1, “3,4-METHYLENEDIOXYMETHAMPHETAMINE AND RELATED PS[…] USES THEREOF” (Terran Biosciences Inc., priority 2021, published 2024)

Experiment: Single oral (PO) dose pharmacokinetics study in rats; plasma concentration of MDMA (and prodrug) by LC-MS/MS
Settings: male SD rats
[1] = 0.50 h after oral dosing of prodrug 10 mg/Kg
[2] = 1.00 h after oral dosing of prodrug 10 mg/Kg
[3] = 2.00 h after oral dosing of prodrug 10 mg/Kg
[4] = 4.00 h after oral dosing of prodrug 10 mg/Kg
[5] = 7.00 h after oral dosing of prodrug 10 mg/Kg
[6] = 24.0 h after oral dosing of prodrug 10 mg/Kg

| SMILES | Mean plasma concentration of metabolite MDMA [1] | Mean plasma concentration of metabolite MDMA [2] | Mean plasma concentration of metabolite MDMA [3] | Mean plasma concentration of metabolite MDMA [4] | Mean plasma concentration of metabolite MDMA [5] | Mean plasma concentration of metabolite MDMA [6] |
| --- | --- | --- | --- | --- | --- | --- |
| CC(Cc1ccc2c(c1)OCO2)N(C)C(=O)C1CCOC1 (stereo not drawn) [N-[2-(2H-1,3-Benzodioxol-5-yl)-1-methyl-ethyl]-N-methyl-tetrahydro-3-furamide] | BLQ (BLQ: Below Lower Limit of Quantification (0.5 ng/mL)) | BLQ (BLQ: Below Lower Limit of Quantification (0.5 ng/mL)) | BLQ (BLQ: Below Lower Limit of Quantification (0.5 ng/mL)) | BLQ (BLQ: Below Lower Limit of Quantification (0.5 ng/mL)) | BLQ (BLQ: Below Lower Limit of Quantification (0.5 ng/mL)) | BLQ (BLQ: Below Lower Limit of Quantification (0.5 ng/mL)) |
| CC(Cc1ccc2c(c1)OCO2)N(C)C(=O)CN(C)C(=O)[C@@H](N)Cc1ccccc1 (stereo partly drawn) [SarcPhe prodrug of MDMA, (2S)-2-amino-N-[2-[[2-(1,3-benzodioxol-5-yl)-1-methyl-ethyl]-methyl-amino]-2-oxo-ethyl]-N-methyl-3-phenyl-propanamide] | BLQ (BLQ: Below Lower Limit of Quantification (0.5 ng/mL)) | BLQ (BLQ: Below Lower Limit of Quantification (0.5 ng/mL)) | BLQ (BLQ: Below Lower Limit of Quantification (0.5 ng/mL)) | BLQ (BLQ: Below Lower Limit of Quantification (0.5 ng/mL)) | BLQ (BLQ: Below Lower Limit of Quantification (0.5 ng/mL)) | BLQ (BLQ: Below Lower Limit of Quantification (0.5 ng/mL)) |
| CC(=O)OCC(C)(C)CC(=O)N(C)C(C)Cc1ccc2c(c1)OCO2 (stereo not drawn) [(3-{[2-(2H-1,3-Benzodioxol-5-yl)-1-methylethyl]-N-methylcarbamoyl}-2,2-dimethylpropyl acetate] | BLQ (BLQ: Below Lower Limit of Quantification (0.5 ng/mL)) | BLQ (BLQ: Below Lower Limit of Quantification (0.5 ng/mL)) | BLQ (BLQ: Below Lower Limit of Quantification (0.5 ng/mL)) | BLQ (BLQ: Below Lower Limit of Quantification (0.5 ng/mL)) | BLQ (BLQ: Below Lower Limit of Quantification (0.5 ng/mL)) | BLQ (BLQ: Below Lower Limit of Quantification (0.5 ng/mL)) |
| CC(Cc1ccc2c(c1)OCO2)N(C)C(=O)OCC(C)(C)COC(=O)C(C)(C)C (stereo not drawn) [[3-[[2-(1,3-Benzodioxol-5-yl)-1-methyl-ethyl]-methyl-carbamoyl]oxy-2,2-dimethyl-propyl] 2,2-dimethylpropanoate] | BLQ (BLQ: Below Lower Limit of Quantification (0.5 ng/mL)) | BLQ (BLQ: Below Lower Limit of Quantification (0.5 ng/mL)) | BLQ (BLQ: Below Lower Limit of Quantification (0.5 ng/mL)) | BLQ (BLQ: Below Lower Limit of Quantification (0.5 ng/mL)) | BLQ (BLQ: Below Lower Limit of Quantification (0.5 ng/mL)) | BLQ (BLQ: Below Lower Limit of Quantification (0.5 ng/mL)) |
| CCOC(=O)N(C)C(C)Cc1ccc2c(c1)OCO2 (stereo not drawn) [Ethyl carbamate prodrug of MDMA, Ethyl N-[2-(1,3-benzodioxol-5-yl)-1-methyl-ethyl]-N-methyl-carbamate] | BLQ (BLQ: Below Lower Limit of Quantification (0.5 ng/mL)) | BLQ (BLQ: Below Lower Limit of Quantification (0.5 ng/mL)) | BLQ (BLQ: Below Lower Limit of Quantification (0.5 ng/mL)) | BLQ (BLQ: Below Lower Limit of Quantification (0.5 ng/mL)) | BLQ (BLQ: Below Lower Limit of Quantification (0.5 ng/mL)) | BLQ (BLQ: Below Lower Limit of Quantification (0.5 ng/mL)) |
| CC(Cc1ccc2c(c1)OCO2)N(C)C(=O)CCCCC(=O)O (stereo not drawn) [Adipate prodrug of MDMA, 5-{[2-(2H-1,3-Benzodioxol-5-yl)-1-methyl-ethyl]-N-methylcarbamoyl}valeric acid] | BLQ (BLQ: Below Lower Limit of Quantification (0.5 ng/mL)) | BLQ (BLQ: Below Lower Limit of Quantification (0.5 ng/mL)) | BLQ (BLQ: Below Lower Limit of Quantification (0.5 ng/mL)) | BLQ (BLQ: Below Lower Limit of Quantification (0.5 ng/mL)) | BLQ (BLQ: Below Lower Limit of Quantification (0.5 ng/mL)) | BLQ (BLQ: Below Lower Limit of Quantification (0.5 ng/mL)) |
| CC(Cc1ccc2c(c1)OCO2)N(C)C(=O)OC1COC1 (stereo not drawn) [Oxetane-3-yl carbamate prodrug of MDMA, Oxetan-3-yl N-[2-(1,3-benzodioxol-5-yl)-1-methyl-ethyl]-N-methyl-carbamate] | BLQ (BLQ: Below Lower Limit of Quantification (0.5 ng/mL)) | BLQ (BLQ: Below Lower Limit of Quantification (0.5 ng/mL)) | BLQ (BLQ: Below Lower Limit of Quantification (0.5 ng/mL)) | BLQ (BLQ: Below Lower Limit of Quantification (0.5 ng/mL)) | BLQ (BLQ: Below Lower Limit of Quantification (0.5 ng/mL)) | BLQ (BLQ: Below Lower Limit of Quantification (0.5 ng/mL)) |
| CC(C)[C@H](N)C(=O)N(C)C(C)Cc1ccc2c(c1)OCO2 (stereo partly drawn) [Valine prodrug of MDMA, (2S)-2-amino-N-[2-(1,3-benzodioxol-5-yl)-1-methyl-ethyl]-N,3-dimethyl-butanamide] | BLQ (BLQ: Below Lower Limit of Quantification (0.5 ng/mL)) | BLQ (BLQ: Below Lower Limit of Quantification (0.5 ng/mL)) | BLQ (BLQ: Below Lower Limit of Quantification (0.5 ng/mL)) | BLQ (BLQ: Below Lower Limit of Quantification (0.5 ng/mL)) | BLQ (BLQ: Below Lower Limit of Quantification (0.5 ng/mL)) | BLQ (BLQ: Below Lower Limit of Quantification (0.5 ng/mL)) |
| CC(Cc1ccc2c(c1)OCO2)N(C)C(=O)C1CCOCC1 (stereo not drawn) [Pyran amide prodrug of MDMA, N-[2-(2H-1,3-Benzodioxol-5-yl)-1-methyl-ethyl]-N-methyl-tetrahydro-2H-pyran-4-carboxamide] | BLQ (BLQ: Below Lower Limit of Quantification (0.5 ng/mL)) | BLQ (BLQ: Below Lower Limit of Quantification (0.5 ng/mL)) | BLQ (BLQ: Below Lower Limit of Quantification (0.5 ng/mL)) | BLQ (BLQ: Below Lower Limit of Quantification (0.5 ng/mL)) | BLQ (BLQ: Below Lower Limit of Quantification (0.5 ng/mL)) | BLQ (BLQ: Below Lower Limit of Quantification (0.5 ng/mL)) |
| CCCOC(=O)N(C)C(C)Cc1ccc2c(c1)OCO2 (stereo not drawn) [Propyl carbamate prodrug of MDMA, propyl N-[2-(1,3-benzodioxol-5-yl)-1-methyl-ethyl]-N-methyl-carbamate] | BLQ (BLQ: Below Lower Limit of Quantification (0.5 ng/mL)) | BLQ (BLQ: Below Lower Limit of Quantification (0.5 ng/mL)) | BLQ (BLQ: Below Lower Limit of Quantification (0.5 ng/mL)) | BLQ (BLQ: Below Lower Limit of Quantification (0.5 ng/mL)) | BLQ (BLQ: Below Lower Limit of Quantification (0.5 ng/mL)) | BLQ (BLQ: Below Lower Limit of Quantification (0.5 ng/mL)) |
| CC(Cc1ccc2c(c1)OCO2)N(C)C(=O)N(C)C (stereo not drawn) [Dimethylurea prodrug of MDMA, 1-[2-(2H-1,3-Benzodioxol-5-yl)-1-methyl-ethyl]-1,3,3-trimethylurea] | BLQ (BLQ: Below Lower Limit of Quantification (0.5 ng/mL)) | BLQ (BLQ: Below Lower Limit of Quantification (0.5 ng/mL)) | BLQ (BLQ: Below Lower Limit of Quantification (0.5 ng/mL)) | BLQ (BLQ: Below Lower Limit of Quantification (0.5 ng/mL)) | BLQ (BLQ: Below Lower Limit of Quantification (0.5 ng/mL)) | BLQ (BLQ: Below Lower Limit of Quantification (0.5 ng/mL)) |
| CC(Cc1ccc2c(c1)OCO2)N(C)C(=O)C1(C)CCOCC1 (stereo not drawn) [N-[2-(2H-1,3-Benzodioxol-5-yl)-1-methylethyl]-N-methyl-4-methyltetrahydro-2H-pyran-4-carboxamide] | BLQ (BLQ: Below Lower Limit of Quantification (0.5 ng/mL)) | BLQ (BLQ: Below Lower Limit of Quantification (0.5 ng/mL)) | BLQ (BLQ: Below Lower Limit of Quantification (0.5 ng/mL)) | BLQ (BLQ: Below Lower Limit of Quantification (0.5 ng/mL)) | BLQ (BLQ: Below Lower Limit of Quantification (0.5 ng/mL)) | BLQ (BLQ: Below Lower Limit of Quantification (0.5 ng/mL)) |
| CC(C)OC(=O)N(C)C(C)Cc1ccc2c(c1)OCO2 (stereo not drawn) [Isopropyl carbamate prodrug of MDMA, isopropyl N-[2-(1,3-benzodioxol-5-yl)-1-methyl-ethyl]-N-methyl-carbamate] | BLQ (BLQ: Below Lower Limit of Quantification (0.5 ng/mL)) | BLQ (BLQ: Below Lower Limit of Quantification (0.5 ng/mL)) | BLQ (BLQ: Below Lower Limit of Quantification (0.5 ng/mL)) | BLQ (BLQ: Below Lower Limit of Quantification (0.5 ng/mL)) | BLQ (BLQ: Below Lower Limit of Quantification (0.5 ng/mL)) | BLQ (BLQ: Below Lower Limit of Quantification (0.5 ng/mL)) |
